The record followed here is PubChem BioAssay (NCI).

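Method: 48-hour compound exposure of cells in 96-well plates, five concentrations, linear interpolation of endpoints. GI50 = concentration required for 50% inhibition of growth. TGI: concentration producing complete growth inhibition.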

Test systems include NCI-H522 lung; UO-31 renal; KM20L2 colon; LXFL 529 NSCLC; SK-OV-3 ovarian; KM12 colon; OVCAR-5 ovarian; DMS 114 small cell lung; MDA-MB-435; DU-145 prostate.
What all share (experiment): NCI-60 cell line screen, 48 h

As for `C1C[OH+]CC[OH+]CCNCC[OH+]CC[OH+]CCN1.Cl.[Cl-].[Pt+4]`, the GI50 in the assay on NCI-H522 lung is 2.27 µM; in the assay with UO-31 renal, greater than 100 µM; in the assay on KM20L2 colon, greater than 100 µM; in the assay on LXFL 529 NSCLC it was greater than 100 µM; in the assay on SK-OV-3 ovarian it was greater than 100 µM. For the same molecule, the TGI was 6.47 µM with NCI-H522 lung; greater than 100 µM with UO-31 renal; greater than 100 µM in the assay on KM20L2 colon; greater than 100 µM in the assay with LXFL 529 NSCLC; greater than 100 µM with SK-OV-3 ovarian.

`CCN(CC)CCn1c2ccccc2c(=O)c2c(OC)ccc(OC)c21`: the TGI in the assay with NCI-H522 lung, in the assay with UO-31 renal, in the assay on KM20L2 colon, in the assay on LXFL 529 NSCLC, in the assay with KM12 colon and in the assay on OVCAR-5 ovarian was greater than 100 µM in each case.

In the case of `COc1cc(/C=C2/C(=O)N(C(=O)OCc3ccccc3)C(Cc3cc(OC)c(OC)c(C)c3OC)C(=O)N2Cc2ccccc2)c(OC)c(C)c1OC` (centres undefined), the TGI in the assay with NCI-H522 lung, in the assay with UO-31 renal, in the assay on DMS 114 small cell lung, with KM20L2 colon, with LXFL 529 NSCLC and in the assay with KM12 colon was greater than 100 µM in each case. In addition, the TGI with SK-OV-3 ovarian and with OVCAR-5 ovarian was greater than 100 µM in each case.

For `CCOCc1cc(=O)c2c(OC)cc3c(c2o1)CCC(C)(C)O3`, the TGI with NCI-H522 lung, in the assay on UO-31 renal, in the assay on KM20L2 colon, with LXFL 529 NSCLC, in the assay with KM12 colon and in the assay with SK-OV-3 ovarian was greater than 100 µM throughout. The molecule further yielded a TGI in the assay on OVCAR-5 ovarian greater than 100 µM.

As to `Cc1ccccc1C1CC(c2ccccc2)=NO1` (centres undefined), the TGI in the assay with NCI-H522 lung, in the assay with UO-31 renal, in the assay on DMS 114 small cell lung, in the assay on KM20L2 colon, in the assay on LXFL 529 NSCLC and with KM12 colon was greater than 100 µM throughout. The TGI with SK-OV-3 ovarian and in the assay on OVCAR-5 ovarian was greater than 100 µM in each case.

As to `CCOC(=O)c1cccnc1C(OC(C)=O)OC(C)=O`, the TGI in the assay on NCI-H522 lung, in the assay with UO-31 renal, in the assay on DMS 114 small cell lung, in the assay with KM20L2 colon, in the assay with LXFL 529 NSCLC and with KM12 colon was greater than 100 µM throughout. The TGI with SK-OV-3 ovarian and with OVCAR-5 ovarian was greater than 100 µM throughout.

Regarding `O=c1cc(-c2ccccc2)[nH]c2cc(Cl)ccc12`, the TGI was 0.358 µM with NCI-H522 lung; greater than 100 µM in the assay on UO-31 renal; 3.29 µM in the assay on DMS 114 small cell lung; 3.2 µM with KM20L2 colon; 53.2 µM in the assay on LXFL 529 NSCLC; 52.5 µM in the assay with KM12 colon. Besides, the TGI was 3.95 µM with SK-OV-3 ovarian and greater than 100 µM with OVCAR-5 ovarian.

Regarding `CCOC(=O)C(C(O)c1ccc([N+](=O)[O-])cc1)P(=O)(OCC)OCC` (centres undefined), the TGI in the assay with NCI-H522 lung, with KM20L2 colon, with LXFL 529 NSCLC, with KM12 colon and in the assay with OVCAR-5 ovarian was greater than 100 µM throughout.

Turning to `CC1C2CC=CC(=O)[C@@]2(C)CCC12OCCO2` (some centres undefined), the TGI in the assay with NCI-H522 lung, in the assay with UO-31 renal, in the assay with DMS 114 small cell lung, in the assay with KM20L2 colon, in the assay on LXFL 529 NSCLC and with KM12 colon was greater than 100 µM each time. Also, the TGI in the assay on SK-OV-3 ovarian and with OVCAR-5 ovarian was greater than 100 µM throughout.

For the molecule `CCOC1CC2OC(=O)C1C=C2C(=O)OC` (centres undefined), the TGI was 28.1 µM in the assay with NCI-H522 lung; greater than 100 µM with UO-31 renal; 54.9 µM with DMS 114 small cell lung; greater than 100 µM in the assay with KM20L2 colon; 36.1 µM with LXFL 529 NSCLC; greater than 100 µM in the assay on KM12 colon. Also, the TGI with SK-OV-3 ovarian and with OVCAR-5 ovarian was greater than 100 µM each time.

Turning to `COC(=O)C(/C(=N\NC(N)=S)C(=O)Nc1ccccc1[N+](=O)[O-])c1cnc2ccccc2n1` (centres undefined), the TGI with NCI-H522 lung, with UO-31 renal, with DMS 114 small cell lung, in the assay with KM20L2 colon, in the assay on LXFL 529 NSCLC and in the assay with KM12 colon was greater than 100 µM each time. Besides, the TGI with SK-OV-3 ovarian and in the assay on OVCAR-5 ovarian was greater than 100 µM in each case.

As to `C=CCN(N=O)C(=O)NCCCCC(NC(C)=O)C(=O)NCc1ccccc1` (centres undefined), the TGI with NCI-H522 lung, in the assay with UO-31 renal, with DMS 114 small cell lung, in the assay with KM20L2 colon, in the assay on LXFL 529 NSCLC and with KM12 colon was greater than 100 µM in each case. In addition, the TGI with SK-OV-3 ovarian and in the assay on OVCAR-5 ovarian was greater than 100 µM in each case.

Turning to `CN1CCN(Cc2cc(NC(=O)c3cccc(C#Cc4cccc5[nH]nc(N)c45)c3)cc(C(F)(F)F)c2)CC1`, the GI50 in the assay on NCI-H522 lung is 1.74 µM; in the assay with UO-31 renal it was 1.71 µM; with KM12 colon it was 1.32 µM; in the assay on MDA-MB-435, 1.48 µM; in the assay on SK-OV-3 ovarian, 1.94 µM; in the assay with DU-145 prostate, 1.7 µM. Moreover, the GI50 in the assay with OVCAR-5 ovarian is 1.5 µM. Moreover, the TGI in the assay on NCI-H522 lung amounted to 3.34 µM; in the assay with UO-31 renal it was 3.16 µM; in the assay on KM12 colon, 2.67 µM; with MDA-MB-435, 2.9 µM; in the assay with SK-OV-3 ovarian, 3.54 µM; in the assay with DU-145 prostate, 3.07 µM. Also, the TGI in the assay with OVCAR-5 ovarian was 2.98 µM.

Turning to `COC1=CC(=O)c2nc(Cl)ccc2C1=O`, the GI50 is 1.7 µM in the assay with NCI-H522 lung; 1.63 µM in the assay on UO-31 renal; 2.11 µM in the assay on KM12 colon; 1.79 µM in the assay on MDA-MB-435; 11 µM in the assay on SK-OV-3 ovarian; 1.65 µM in the assay on DU-145 prostate. In the assay with OVCAR-5 ovarian, the GI50 was 2.06 µM. Besides, the TGI was 3.57 µM with NCI-H522 lung; 3.12 µM with UO-31 renal; 4.82 µM in the assay on KM12 colon; 3.36 µM with MDA-MB-435; 23.3 µM with SK-OV-3 ovarian; 3.01 µM in the assay on DU-145 prostate. The same molecule gave a TGI in the assay with OVCAR-5 ovarian of 4.88 µM.

Take `COc1cc2c(cc1C)NC(=O)/C2=C\c1c[nH]c2ccccc12`: the GI50 in the assay with NCI-H522 lung was 12.2 µM; in the assay with UO-31 renal, 10.4 µM; in the assay with KM12 colon, 0.417 µM; in the assay with MDA-MB-435, 14.3 µM; in the assay on SK-OV-3 ovarian, 17.3 µM; in the assay with DU-145 prostate, 15.3 µM. Besides, the GI50 in the assay with OVCAR-5 ovarian is 13.5 µM. The TGI turned out to be 28.9 µM with NCI-H522 lung; 62.9 µM in the assay with UO-31 renal; 21.1 µM in the assay on KM12 colon; 43.8 µM in the assay with MDA-MB-435; 37.7 µM in the assay on SK-OV-3 ovarian; 41.1 µM in the assay with DU-145 prostate. Further, the TGI with OVCAR-5 ovarian came to 42.7 µM.
